Data on 16 compounds can be found in patent US8354414B2, “Substituted bicyclic pyrimidines” (Cephalon, Inc, priority 2006, dated 2013).

For one experiment, the target named is T1, His6-GSK-3β (Homo sapiens, UniProt P49841).
T1 construct: made in house; host or cells: Sf21 insect cells (baculovirus)
The experiment in a line: Inhibition of His6-GSK-3β kinase activity (ELISA-based format, time-resolved fluorescence readout). The format is biochemical. To be noted: read-out: GSK3β IC50. The text has this:
Full-length GSK-3β was amplified from a sequence-verified I.M.A.G.E. EST acquired from Research Genetics (Invitrogen, Clone ID# CSODB003YJ02). The final sequence-verified cDNA contained the coding region for a NH2-terminal tag, which encoded for 6 histidines and then eight vector-encoded amino acids prior to the start of GSK3β, which contained by # 43-1342 of Genbank Accession # NM_002093, encoding amino acids #2-419. The predicted molecular weight of the tagged, 435 amino acid, full-length protein is 48.5 kDa. The major structural element of this protein is the kinase domain, which is from amino acids #56-340. Recombinant baculoviral DNA was prepared by transposition in E. coli (BAC-TO-BAC system: Invitrogen) and the virus generated and amplified in Sf21 insect cells. A suspension culture of Sf21 cells was infected at an MOI of 0.7 and cell density of 1.5×10^6 cells/mL in Excell 420 serum-free media (JRH BioScience) and harvested 65 h after infection. The 100,000×g supernatant solution was used for purification. Expression was confirmed by running samples on SDS-PAGE, followed by immunoblot analysis utilizing both a Penta-HIS antibody (Qiagen #34660) and a GSK-3α/GSK-3β antibody (Calbiochem #368662, data not shown). The His6-tagged protein was purified to in one step by Ni-NTA affinity chromatography.
Inhibitory effects of compounds on baculoviral GSK-3β kinase activity were evaluated using an ELISA-based format in a 384-well FluoroNunc Maxisorp plate (Cat # 460372) with a time-resolved fluorescence readout. Briefly, each plate was coated with 50 μl/well of 20 μg/ml substrate solution (recombinant GST-Rb) in Tris-buffered saline (TBS). The GSK-3β assay mixture (total volume=50 μl/well) consisting of 50 mM HEPES (pH 7.2), 20 μM ATP, 10 mM MgCl2, 5 mM EGTA, 25 mM β-glycerophosphate, 0.05% BSA, 2.5% DMSO, and various concentrations of test compound were then added to the assay plate. Enzyme (200 ng/ml His6-GSK-3β) was then added and the reaction was allowed to proceed at 37° C. for 30 minutes. Detection of the phosphorylated product was performed by adding 50 μl/well of phospho-Rb (Ser-780) antibody (Cell Signaling # 9307) diluted 1:10,000 in antibody dilution buffer (0.1% BSA in TBST). After 1-hour incubation at 37° C., 50 μl/well of Eu-N1 labelled anti-rabbit antibody (Wallac # AD0105; 1:50,000 in antibody dilution buffer) was added. Incubation at 37° C. then proceeded for 1 hour, followed by addition of 50 μl enhancement solution (Wallac #1244-105). The plate was gently agitated and after a few minutes, the fluorescence of the resulting solution was measured using a Multilabel Reader (Victor2 Model # 1420-018 or Envision Model 2100). Inhibition data were analyzed using ActivityBase and IC50 curves were generated using XLFit 3.0.5.

A further experiment has as its target T2, CDK5/GST-p25 (Homo sapiens, UniProt Q00535).
T2 construct: The final construct, encoding for full-length human CDK5; made in house; host or cells: Sf21 insect cells (baculovirus co-infection)
The experiment in a line: Inhibition of CDK5/GST-p25 kinase activity (ELISA with time-resolved fluorescence readout). The format is biochemical. The protocol:
Two recombinant baculoviral constructs were created, one encoding for human CDK5 and the other encoding for human p25 with an amino-terminal glutathione-S-transferase (GST) tag. PCR amplification of full-length CDK5 was performed utilizing human brain cDNA as a template and Pfu Turbo polymerase (Strategene). The PCR product from this reaction was subcloned into the baculoviral expression vector pFASTBAC1 (Gibco/BRL). The final construct, encoding for full-length human CDK5 (base pairs 25-903 of GenBank Accession #NM_004935), is 292 amino acids long with a predicted MW of 33.3 kDa.
For p25, the active truncated form of p35, amino acids 108-307 were PCR-amplified from human fetal brain cDNA (Clontech QUICK-Clone cDNA) using the Advantage 2 PCR system (Clontech). The PCR product was subcloned into the baculoviral transfer vector pFBGSTP (an engineered derivative of the baculoviral transfer vector pFASTBAC1). The final baculoviral construct encodes for base pairs 419-1021 of GenBank Accession #NM_003885, with an amino-terminal GST tag. The expressed GST-p25 is 444 amino acids long with a predicted MW of 50.3 kDa.
The CDK5/GST-p25 complex was generated by coexpression. Sf21 cells were cultured in TNM-FHS media at a density of 1.5×10^6 cells/mL and infected with each recombinant virus at MOI values of 5 (for CDK5) and 10 (for GST-p25). The cells were harvested 40 h after infection. For purification, the 100,000×g supernatant solution was used. Expression was confirmed by running samples on SDS-PAGE, followed by immunoblot analysis utilizing antibodies against CDK5 (anti-CDK5 (268-283); Calbiochem #219449) and p35 (Santa Cruz #sc820). The CDK5/GST-p25 complex was purified by glutathione affinity chromatography.
Compounds were tested for their ability to inhibit the kinase activity of recombinant baculoviral CDK5/GST-p25 using an enzyme-linked immunosorbent assay (ELISA) with time-resolved fluorescence (TRF) readout. Briefly, each 384-well FluoroNunc Maxisorp plate (Cat # 460372) plate was coated with 50 μl/well of 50 μg/ml substrate solution (recombinant GST-Rb(773-928)) in Tris-buffered saline (TBS). The CDK5/GST-p25 assay mixture (total volume=50 μl/well) consisting of 20 mM HEPES (pH 7.2), 10 μM ATP, 10 mM MgCl2, 5 mM EGTA, 25 mM β-glycerophosphate, 0.05% BSA, 2.5% DMSO, and various concentrations of test compound were then added to the assay plate. Enzyme (2 ng/ml CDK5/GST-p25) was added and the reaction was allowed to proceed at 37° C. for 20 minutes. Detection of the phosphorylated product was performed by adding 50 μl/well of phospho-Rb (Ser-780) antibody (Cell Signaling # 9307) diluted 1:10,000 in antibody dilution buffer (0.1% BSA in TBST). After 1-hour incubation at 37° C., 50 μl/well of Eu-Nl labelled anti-rabbit antibody (Wallac # AD0105; 1:50,000 in antibody dilution buffer) was added. Incubation at 37° C. then proceeded for 1 hour, followed by addition of 50 μl enhancement solution (Wallac #1244-105). The plate was gently agitated and after a few minutes, the fluorescence of the resulting solution was measured using a Multilabel Reader (Victor2 Model # 1420-018 or Envision Model # 2100). Inhibition data were analyzed using ActivityBase and IC50 curves were generated using XLFit 3.0.5.

Counter-ions that a name gives are not always drawn. Like-named read-outs stand apart in the source and are kept apart here.

T2 sequence (Q00535 whole entry): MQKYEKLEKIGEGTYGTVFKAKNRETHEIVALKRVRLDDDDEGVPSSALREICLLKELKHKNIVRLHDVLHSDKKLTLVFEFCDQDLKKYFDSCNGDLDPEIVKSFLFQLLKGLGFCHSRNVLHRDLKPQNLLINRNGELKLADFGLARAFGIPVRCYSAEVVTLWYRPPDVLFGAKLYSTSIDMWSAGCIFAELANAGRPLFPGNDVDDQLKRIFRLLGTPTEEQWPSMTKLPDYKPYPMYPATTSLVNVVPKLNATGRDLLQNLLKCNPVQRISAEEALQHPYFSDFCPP
T2 sequence (Q15078 108-307 partner limits assumed): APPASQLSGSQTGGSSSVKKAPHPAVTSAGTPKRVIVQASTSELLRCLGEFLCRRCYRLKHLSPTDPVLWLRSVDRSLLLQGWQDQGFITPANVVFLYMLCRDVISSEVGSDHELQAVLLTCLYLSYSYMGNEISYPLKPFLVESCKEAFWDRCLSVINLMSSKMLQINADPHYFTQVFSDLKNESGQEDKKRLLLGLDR
T1 sequence (P49841 2-419): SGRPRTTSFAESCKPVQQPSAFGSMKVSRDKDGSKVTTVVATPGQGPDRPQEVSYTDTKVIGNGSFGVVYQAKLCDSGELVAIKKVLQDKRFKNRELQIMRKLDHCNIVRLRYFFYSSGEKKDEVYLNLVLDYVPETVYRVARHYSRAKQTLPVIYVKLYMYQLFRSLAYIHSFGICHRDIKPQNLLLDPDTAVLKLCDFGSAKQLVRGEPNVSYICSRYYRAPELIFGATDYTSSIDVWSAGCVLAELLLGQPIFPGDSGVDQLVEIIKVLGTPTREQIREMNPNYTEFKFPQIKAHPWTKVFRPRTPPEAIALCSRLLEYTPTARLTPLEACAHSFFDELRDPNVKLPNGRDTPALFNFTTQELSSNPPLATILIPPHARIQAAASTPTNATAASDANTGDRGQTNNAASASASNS

`O=C1Nc2ccc(Br)cc2C1c1nc(Cl)nc2nn(C3CCCC3)cc12` (centres unmarked) [Example 182, 5-Bromo-3-(6-chloro-2-cyclopentyl-2-H-pyrazolo[3,4-d]pyrimidin-4-yl)-1,3-dihydro-indol-2-one]: the IC50 on His6-GSK-3β (numeric bounds) was over 3000 nM; at CDK5/GST-p25 (class symbols), over 10000 nM.

Consider `CCCn1cc2c(C3C(=O)Nc4ccc(Br)cc43)nc(NC[C@@H](O)CO)nc2n1` (stereo partly drawn) [Example 368, 5-Bromo-3-[6-((R)-2,3-dihydroxy-propylamino)-2-propyl-2H-pyrazolo[3,4-d]pyrimidin-4-yl]-1,3-dihydro-indol-2-one], for which the IC50 at His6-GSK-3β (class symbols) and at CDK5/GST-p25 (class symbols) was under 300 nM each time.

Take `N#Cc1ccc2c(c1)C(c1nc(N3CCN(CCN4CCCC4)CC3)nc3nn(C4CCCC4)cc13)C(=O)N2` (centres unmarked) [Example 127, 3-{2-cyclopentyl-6-[4-(2-pyrrolidin-1-yl-ethyl)-piperazin-1-yl]-2H-pyrazolo[3,4-d]pyrimidin-4-yl}-2-oxo-2,3-dihydro-1H-indole-5-carbonitrile]: the 50% inhibitory concentration (IC50) is under 300 nM at His6-GSK-3β (class symbols) and over 10000 nM at CDK5/GST-p25 (class symbols).

Take `N#Cc1ccc2c(c1)C(c1ncnc3nn(C4CCCCC4)cc13)C(=O)N2` (centres unmarked) [Example 45, 3-(2-Cyclohexyl-2H-pyrazolo [3,4-d]pyrimidin-4-yl)-2-oxo-2,3-dihydro-1H-indole-5-carbonitrile]: the IC50 at His6-GSK-3β (class symbols) and on CDK5/GST-p25 (class symbols) was under 300 nM in each case.

Regarding `O=C1Nc2ccc(Cl)cc2C1c1nc(N2CCOCC2)nc2nn(C3CCCC3)cc12` (centres unmarked) [Example 143, 5-Chloro-3-(2-cyclopentyl-6-morpholin-4-yl-2H-pyrazolo [3,4-d]pyrimidin-4-yl)-1,3-dihydro-indol-2-one], the IC50 at His6-GSK-3β (class symbols) is under 300 nM; at CDK5/GST-p25 (class symbols), over 10000 nM.

For the compound `CCCn1cc2c(C3C(=O)Nc4ccc(Br)cc43)nc(N[C@H]3CCNC3)nc2n1` (some centres unmarked) [Example 362], the IC50 on His6-GSK-3β (class symbols) is 300 to 3000 nM; at CDK5/GST-p25 (numeric bounds), over 3000 nM.

Regarding `O=C1Nc2ccc(Cl)cc2C1c1nc(NCCN2CCOCC2)nc2c1CCC2` (centres unmarked) [Example 324, 5-Chloro-3-[2-(2-morpholin-4-yl-ethylamino)-6,7-dihydro-5H-cyclopentapyrimidin-4-yl]-1,3-dihydro-indol-2-one], the IC50 at His6-GSK-3β (numeric bounds) and against CDK5/GST-p25 (numeric bounds) was over 3000 nM in each case.

Consider `CN(C)CCNc1nc(C2C(=O)Nc3ccc(C#N)cc32)c2cn(C3CCCC3)nc2n1` (centres unmarked) [Example 119, 3-(2-cyclopentyl-6-(2-dimethylamino-ethylamino)-2H-pyrazolo [3,4-d]pyrimidin-4-yl)-2-oxo-2,3-dihydro-1H-indole-5-carbonitrile], for which the IC50 is under 300 nM at His6-GSK-3β (class symbols) and 300 to 3000 nM on CDK5/GST-p25 (class symbols).

On to `COCCn1cc2c(C3C(=O)Nc4ccc(Br)cc43)nc(NCCC3CCNCC3)nc2n1` (centres unmarked) [Example 227, 5-Bromo-3-[2-(2-methoxy-ethyl)-6-(2-piperidin-4-yl-ethylamino)-2H-pyrazolo[3,4-d]pyrimidin-4-yl]-1,3-dihydro-indol-2-one], for which the IC50 on His6-GSK-3β (class symbols) and on CDK5/GST-p25 (class symbols) was under 300 nM each time.

As to `COCCNc1nc(C2C(=O)Nc3ccc(C#N)cc32)c2cn(C3CCCC3)nc2n1` (centres unmarked) [Example 174, 3-[2-Cyclopentyl-6-(2-methoxy-ethylamino)-2H-pyrazolo [3,4-d]pyrimidin-4-yl]-2-oxo-2,3-dihydro-1H-indole-5-carbonitrile], the IC50 at His6-GSK-3β (class symbols) and at CDK5/GST-p25 (class symbols) was under 300 nM each time.

On to `N#Cc1ccc2c(c1)C(c1nc(Nc3ccc(N4CCS(=O)(=O)CC4)cc3)nc3nn(C4CCCC4)cc13)C(=O)N2` (centres unmarked) [Example 135, 3-{2-Cyclopentyl-6-[4-(1,1-dioxo-1λ^6-thiomorpholin-4-yl)-phenylamino]-2H-pyrazolo[3,4-d]pyrimidin-4-yl}-2-oxo-2,3-dihydro-1H-indole-5-carbonitrile], for which the figures for the IC50 on His6-GSK-3β (class symbols) and at CDK5/GST-p25 (class symbols) were under 300 nM and over 10000 nM, respectively.

On to `N#Cc1ccc2c(c1)C(c1nc(NN)nc3nn(C4CCCC4)cc13)C(=O)N2` (centres unmarked) [Example 124, 3-(2-cyclopentyl-6-hydrazino-2H-pyrazolo [3,4-d]pyrimidin-4-yl)-2-oxo-2,3-dihydro-1H-indole-5-carbonitrile], for which the IC50 at His6-GSK-3β (class symbols) is under 300 nM; against CDK5/GST-p25 (class symbols), 300 to 3000 nM.

For the compound `CNCCCNc1nc(C2C(=O)Nc3ccc(C(F)(F)F)cc32)c2cn(C3CCCC3)nc2n1` (centres unmarked) [Example 253, 3-[2-Cyclopentyl-6-(3-methylamino-propylamino)-2H-pyrazolo [3,4-d]pyrimidin-4-yl]-5-trifluoromethyl-1,3-dihydro-indol-2-one hydrochloride salt], the IC50 on His6-GSK-3β (class symbols) is under 300 nM; against CDK5/GST-p25 (class symbols), 300 to 3000 nM.

Regarding `N#Cc1ccc2c(c1)C(c1nc(N3CCN(CCCc4ccccc4)CC3)nc3nn(C4CCCC4)cc13)C(=O)N2` (centres unmarked) [Example 128, 3-{2-cyclopentyl-6-[4-(3-phenyl-propyl)-piperazin-1-yl]-2H-pyrazolo[3,4-d]pyrimidin-4-yl}-2-oxo-2,3-dihydro-1H-indole-5-carbonitrile], the IC50 at His6-GSK-3β (class symbols) is under 300 nM; against CDK5/GST-p25 (class symbols) it was over 10000 nM.

As for `CN1CCN(c2nc(C3C(=O)Nc4ccc(C#N)cc43)c3cn(C4CCCC4)nc3n2)CC1` (centres unmarked) [Example 117, 3-(2-cyclopentyl-6-(4-methyl-piperazin-1-yl)-2H-pyrazolo[3,4-d]pyrimidin-4-yl)-2-oxo-2,3-dihydro-1H-indole-5-carbonitrile], the IC50 on His6-GSK-3β (class symbols) was under 300 nM; against CDK5/GST-p25 (class symbols) it was 3000 to 10000 nM.

For `O=C1Nc2ccc(Br)cc2C1c1nc(NCc2ccncc2)nc2c1CCC2` (centres unmarked) [Example 336, 5-Bromo-3-{2-[(pyridin-4-ylmethyl)-amino]-6,7-dihydro-5H-cyclopentapyrimidin-4-yl}-1,3-dihydro-indol-2-one], the figures for the IC50 at His6-GSK-3β (numeric bounds) and on CDK5/GST-p25 (class symbols) were over 3000 nM and over 10000 nM, respectively.
